Reference: US20090197811A1, “ORALLY ADMINISTERED PEPTIDES TO IMPROVE OR PREVENT HEPATIC FIBROSIS” (University of Southern California, priority 2007, published 2009)
“And” between values parts separate entries of the source, which are not always exact repeats. Equal values may be shown once. Non-standard residues stand in square brackets, D forms with d.

What was measured:
C57Bl/6J mice [1] = assay: Western diet model: biochemical findings and liver and body weights; assay type: in vivo, mouse; conditions: for GSH / TBARS: liver; for ALT / AST / Adiponectin / Cholesterol / Glucose / Insulin / Leptin / Triglycerides: serum
Protocol: SR141716 was a kind gift from Sanofi-Aventis, France. SR141716 was dissolved in water with 0.1% Tween and given daily by gavage for 10 weeks. D-4F is an 18-mer of D-amino acids (Ac-D-W-F-K-A-F-Y-D-K-V-A-E-K-F-K-E-A-F-NH2)^4 (SEQ ID NO: 1) that was commercially synthesized (A & A Laboratories, San Diego Calif.) with 80% purity. D-4F was dissolved in the drinking water at a concentration of 60 μg/ml water for a calculated dose corrected for drug purity of 125 μg D-4F/mouse/day.
The high fat diet used was the RD “Western diet” (Research Diets, D12079B), which contains 41% of calories from fat, 43% calories from carbohydrate, and 17% of calories from protein); this diet was designed to approximate the “typical” human diet of North America and Europe.
(§1) Studies were performed in male C5713L/6J mice (Jackson Laboratories, Bar Harbor Me.). Six groups were studied (n=3-5, see FIG. 1) with 4 mice per group at the outset, except for group 2, which was started with n=5; 1 mouse died in group 1. Groups 1, 2, and 3 received the Western diet for 9.5 months; during the last 2.5 months of the 9.5 months, group 2 received SR141716 10 mg/kg/day i.g., and group 3 received D-4F, 125 μg/mouse/day, in the drinking water. Groups 4, 5, and 6 received the Western diet for 7 months followed by standard chow for 2.5 months; during the 2.5 months on standard chow, group 5 received SR141716 and group 6 received D-4F as described for groups 2 and 3, respectively. Additional control groups were studied: 6-month old C57Bl/6J mice as age-matched controls (n=5) and C57Bl/6J mice that received the Western diet for 6 months (n=6).
Serum aspartate amino transferase (AST) and alanine aminotransferase (ALT) were measured with the Infinity AST and ALT liquid assay reagent (Thermo Electron Corporation, Louisville Colo., cat #TR70121 and TR71121). Serum triglycerides and cholesterol were measured with the Infinity cholesterol assay reagent (Thermo Electron Corporation, Louisville Colo., cat #TR22321 and TR13315). Serum glucose was measured with the Glucose (HK) assay kit (Sigma, St. Louis, Mo., cat #GAHK-20). Serum insulin was measured with the Mercodia Ultrasensitive mouse insulin ELISA kit (ALPCO Diagnostics, Salem N.H., cat #10 1150-01). The homeostasis model assessment insulin resistance index (HOMA-IR) was calculated as [fasting glucose (mmol/liter)*fasting insulin (microunits/ml)]/22.5^17, 18. Serum leptin was measured with the TiterZyme EIA mouse leptin kit (Assay Designs Inc, Ann Arbor Mich., cat #900-019). Serum adiponectin was measured with the mouse adiponectin kit (Biovendor LLC, Candler N.C., cat #RD 293023100). Thiobarbituric acid reactive substance (TBARS) was measured as previously described^19, 20; in brief, liver was homogenized and diluted 1:1 in 10% ice cold trichloroacetic acid. 0.5 ml supernatant or of a standard solution of 1,1,3,3-tetraethoxypropane was mixed with 0.5 ml of 0.6% (w/v) 4,6-dihydroxy-2-thiopyrimidine. The solution was boiled for 30 min, cooled and centrifuged. Absorbance was measured at 532 nm with a Shimadzu TV-2101 PC spectrophotometer. To measure hepatic glutathione (GSH), liver was homogenized and diluted 1:1 in 10% ice cold trichloroacetic acid. GSH in the supernatant was measured according to the recycling assay of Tietze^21.

C57Bl/6J mice [2] = assay: Western diet model: liver histology, assessment of steatosis and inflammation; assay type: in vivo, mouse; conditions: for Fatty Change Degree of fat / Fatty Change Type (predominant type) / Inflammatory Clusters: individual mice
Protocol: as §1
The slides were coded, without the pathologist knowing the specific treatment group that the slides represented. The histology was graded according to a number of histologic features. The degree of fat was graded as to the approximate percentage of hepatocytes containing fat: 0, absent; +/−, less than 5%; 1+, 5-25%; 2+. 26-50%; 3+, 51-75%; 4+, >75%. The fat was also assessed as to whether it was totally macrovesicular, predominantly macrovesicular, totally microvesicular, predominantly microvesicular, or mixed macro- and microvesicular. In addition, the zone was assessed as to whether the fat was perivenular, periportal, diffuse, or focal. Inflammation was graded as absent, scanty (1 to 3 foci/slide), present (scattered, with 4 to 10 foci/slide), present + (scattered, >10 foci/slide but not numerous), and present ++ (numerous). The type of inflammation was graded as totally mononuclear, predominantly mononuclear, totally neutrophilic, predominantly neutrophilic, and mixed mononuclear-neutrophilic. The hydropic change of hepatocytes was graded as absent, mild, and moderate/severe, with the location noted as perivenular, focal or diffuse.

[3] = 7 months Western diet followed by 2.5 months Western diet + drug
[4] = 7 months Western diet followed by 2.5 months chow + drug
[5] = group 3 vs group 1, Western diet 9.5 months, D-4F last 2.5 months

“Ac-D-W-F-K-A-F-Y-D-K-V-A-E-K-F-K-E-A-F-NH2 (Ac-[dD][dW][dF][dK][dA][dF][dY][dD][dK][dV][dA][dE][dK][dF][dK][dE][dA][dF]-NH2; not fully specified; printed as Ac-D-W-F-K-A-F-Y-D-K-V-A-E-K-F-K-E-A-F-NH2) [D-4F]” was tested, and the Body weight (C57Bl/6J mice [1]; [3]) was 39.5 ± 0.8 g, the HOMA-IR (C57Bl/6J mice [1]; [3]) was 63.3 ± 23.5 and the Liver weight (C57Bl/6J mice [1]; [3]) was 2.42 ± 0.04 g. For the same substance, the Body weight (C57Bl/6J mice [1]; [4]) was 35.9 ± 3.2 g, the HOMA-IR (C57Bl/6J mice [1]; [4]) was 16.5 ± 2.2 and the “Liver weight” value (C57Bl/6J mice [1]; [4]) was 1.67 ± 0.19 g. The “body weight, liver weight, serum transaminases, hyperglycemia, hyperinsulinemia, insulin resistance, overall hepatic oxidative stress” value (C57Bl/6J mice [1]; [5]) was “no improvement”, the “leptin levels compared to mice on Western diet alone” value (C57Bl/6J mice [1]; [5]) was “decreased by half” and the “total cholesterol compared to mice on Western diet alone” value (C57Bl/6J mice [1]; [5]) was “decreased by half”. The GSH (C57Bl/6J mice [1]; [3]) was 50.1 ± 5.8 nmole/mg protein, the TBARS (C57Bl/6J mice [1]; [3]) was 29.4 ± 2.4 nmol/g tissue and the GSH (C57Bl/6J mice [1]; [4]) was 82.8 ± 5.2 nmole/mg protein. The TBARS (C57Bl/6J mice [1]; [4]) was 20.0 ± 0.6 nmol/g tissue, the ALT (C57Bl/6J mice [1]; [3]) was 277.3 ± 18.2 U/L and the AST (C57Bl/6J mice [1]; [3]) was 211.9 ± 19.1 U/L. It also gave an Adiponectin (C57Bl/6J mice [1]; [3]) of 15.3 ± 1.0 µg/mL, a Cholesterol (C57Bl/6J mice [1]; [3]) of 146.8 ± 2.1 mg/dL and a Glucose (C57Bl/6J mice [1]; [3]) of 231.2 ± 18.0 mg/dL. For the same substance, the Insulin (C57Bl/6J mice [1]; [3]) was 3.7 ± 1.1 ng/mL, the Leptin (C57Bl/6J mice [1]; [3]) was 17.49 ± 1.41 ng/mL and the Triglycerides (C57Bl/6J mice [1]; [3]) was 40.0 ± 6.7 mg/dL. The ALT (C57Bl/6J mice [1]; [4]) was 69.1 ± 21.5 U/L, the AST (C57Bl/6J mice [1]; [4]) was 104.2 ± 22.4 U/L and the Adiponectin (C57Bl/6J mice [1]; [4]) was 18.52 ± 1.5 µg/mL. The Cholesterol (C57Bl/6J mice [1]; [4]) was 120.8 ± 2.9 mg/dL, the Glucose (C57Bl/6J mice [1]; [4]) was 159.2 ± 2.4 mg/dL and the Insulin (C57Bl/6J mice [1]; [4]) was 1.46 ± 0.2 ng/mL. The Leptin (C57Bl/6J mice [1]; [4]) was 8.70 ± 1.43 ng/mL, the Triglycerides (C57Bl/6J mice [1]; [4]) was 49.1 ± 1.4 mg/dL and the “inflammation, histologically” value (C57Bl/6J mice [2]; [5]) was “some evidence of a reduction”. The “steatosis, histologically” value (C57Bl/6J mice [2]; [5]) was “no effect”, the “inflammation, histologically” value (C57Bl/6J mice [2]; group 6 (switch to chow plus D-4F) vs group 4 (switch to chow)) was “perhaps a small decrease” and the “Fatty Change Degree of fat” value (C57Bl/6J mice [2]; [3]) was 4. For the same substance, the “Fatty Change Type (predominant type)” value (C57Bl/6J mice [2]; [3]) was “Macrovesicular”, the “Inflammatory Clusters” value (C57Bl/6J mice [2]; [3]) was 3 (3×) and 2 and the “Fatty Change Degree of fat” value (C57Bl/6J mice [2]; [4]) was 2 (2×) and 0 and 3. The “Fatty Change Type (predominant type)” value (C57Bl/6J mice [2]; [4]) was “Mixed”, the “Inflammatory Clusters” value (C57Bl/6J mice [2]; [4]) was 1 and 2 (3×) and the “steatohepatitis (summary)” value (C57Bl/6J mice [2]; summary statement) was “did not alter steatohepatitis”.
